Assay results as given in US9738634B2, “Heterocyclic amide compound and herbicide” (SYNGENTA PARTICIPATIONS AG, priority 2013, dated 2017).

Experiments:
Format in all cases: in vivo
[1] = test system: oval-leafed pondweed; test: Test Example 2: weedkilling efficacy, growth period weed treatment in the submerged state; C: oval-leafed pondweed; settings: treatment dosage 252 g/ha
Outline: (§1)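 Seedlings at 1-2 leaves in 4 cm-deep submerged alluvial soil received emulsion formulations on the water surface, dosed per hectare; effects were judged 3 weeks on.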

[2] = test system: redroot pigweed; test: Test Example 3: weedkilling efficacy through soil treatment; L: redroot pigweed; settings: soil treatment, treatment dosage 315 g/ha
From the text: (§2) Weedkilling Efficacy Test Through Soil Treatment
(§3) Sterilized diluvial soil was introduced into 21 cm long, 13 cm wide, 7 cm deep plastic boxes, and seeds of crabgrass, green foxtail, barnyard grass, wild oat, black-grass, Italian ryegrass, common wind-grass, Indian mallow, redroot pigweed, fig-leafed goosefoot, chickweed, catchweed, birds-eye speedwell, corn, soybean, rice, wheat, beet and rapeseed were each spot-sown, and covered with about 1.5 cm of soil. Next, emulsions of compounds of the present invention prepared according to compounding example 2 were diluted with water to give the specified dosages, and applied uniformly onto the soil surface with a small sprayer. The plants were grown by placing the plastic boxes in a greenhouse at 25 to 30° C., and 3 weeks after the pesticide treatment the effect on each type of plant was investigated on the basis of the assessment criteria of test example 1.
(§4) A: barnyard grass, B: bulrush, C: oval-leafed pondweed, D: crabgrass, E: green foxtail, F: barnyard grass, G: wild oat, H: black-grass, I: Italian ryegrass, J: common wind-grass, K: Indian mallow, L: redroot pigweed, M: fig-leafed goosefoot, N: chickweed, O: catchweed, p: birds-eye speedwell, a: transplanted rice, b: directly sown rice, c: corn, d: soybean, e: wheat, f: beet, g: rapeseed
(§5) Further, pesticide dosage (g/ha) indicates the concentration regulated such that treatment was with only the stated number of grams (g), when calculated per hectare (ha).

[3] = test system: fig-leafed goosefoot; test: Test Example 3: weedkilling efficacy through soil treatment; M: fig-leafed goosefoot; settings: soil treatment, treatment dosage 315 g/ha
From the text: as §2, §3, §4, §5

[4] = test system: bulrush; test: Test Example 1: weedkilling efficacy, preemergent weed treatment in the submerged state; B: bulrush; settings: treatment dosage 252 g/ha
Outline: (§6)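 Pre-emergence paddy test: weed seeds sown in submerged alluvial soil (4 cm water), 2.5-leaf rice transplanted, water-diluted emulsion applied to water surface at sowing at stated g/ha. Scored at 3 weeks, greenhouse 25–30 °C.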

[5] = test system: oval-leafed pondweed; test: Test Example 1: weedkilling efficacy, preemergent weed treatment in the submerged state; C: oval-leafed pondweed; settings: treatment dosage 252 g/ha
Outline: as §6

[6] = test system: barnyard grass; test: Test Example 1: weedkilling efficacy, preemergent weed treatment in the submerged state; A: barnyard grass; settings: treatment dosage 252 g/ha
Outline: as §6

[7] = test system: barnyard grass; test: Test Example 2: weedkilling efficacy, growth period weed treatment in the submerged state; A: barnyard grass; settings: treatment dosage 252 g/ha
Outline: as §1

[8] = test system: transplanted rice; test: Test Example 1: preemergent weed treatment in the submerged state, effect on crop; a: transplanted rice; settings: treatment dosage 252 g/ha
Outline: as §6

[9] = test system: directly sown rice; test: Test Example 3: soil treatment, effect on crop; b: directly sown rice; settings: soil treatment, treatment dosage 315 g/ha
From the text: as §2, §3, §4, §5

[10] = test system: black-grass; test: Test Example 3: weedkilling efficacy through soil treatment; H: black-grass; settings: soil treatment, treatment dosage 315 g/ha
From the text: as §2, §3, §4, §5

[11] = test system: Italian ryegrass; test: Test Example 3: weedkilling efficacy through soil treatment; I: Italian ryegrass; settings: soil treatment, treatment dosage 315 g/ha
From the text: as §2, §3, §4, §5

[12] = test system: chickweed; test: Test Example 3: weedkilling efficacy through soil treatment; N: chickweed; settings: soil treatment, treatment dosage 315 g/ha
From the text: as §2, §3, §4, §5

[13] = test system: Indian mallow; test: Test Example 3: weedkilling efficacy through soil treatment; K: Indian mallow; settings: soil treatment, treatment dosage 315 g/ha
From the text: as §2, §3, §4, §5

[14] = test system: beet; test: Test Example 3: soil treatment, effect on crop; f: beet; settings: soil treatment, treatment dosage 315 g/ha
From the text: as §2, §3, §4, §5

[15] = test system: birds-eye speedwell; test: Test Example 3: weedkilling efficacy through soil treatment; p: birds-eye speedwell; settings: soil treatment, treatment dosage 315 g/ha
From the text: as §2, §3, §4, §5

[16] = test system: bulrush; test: Test Example 2: weedkilling efficacy, growth period weed treatment in the submerged state; B: bulrush; settings: treatment dosage 252 g/ha
Outline: as §1

[17] = test system: green foxtail; test: Test Example 3: weedkilling efficacy through soil treatment; E: green foxtail; settings: soil treatment, treatment dosage 315 g/ha
From the text: as §2, §3, §4, §5

[18] = test system: crabgrass; test: Test Example 3: weedkilling efficacy through soil treatment; D: crabgrass; settings: soil treatment, treatment dosage 315 g/ha
From the text: as §2, §3, §4, §5

[19] = test system: soybean; test: Test Example 3: soil treatment, effect on crop; d: soybean; settings: soil treatment, treatment dosage 315 g/ha
From the text: as §2, §3, §4, §5

[20] = test system: wild oat; test: Test Example 3: weedkilling efficacy through soil treatment; G: wild oat; settings: soil treatment, treatment dosage 315 g/ha
From the text: as §2, §3, §4, §5

[21] = test system: wheat; test: Test Example 3: soil treatment, effect on crop; e: wheat; settings: soil treatment, treatment dosage 315 g/ha
From the text: as §2, §3, §4, §5

[22] = test system: corn; test: Test Example 3: soil treatment, effect on crop; c: corn; settings: soil treatment, treatment dosage 315 g/ha
From the text: as §2, §3, §4, §5

SMILES	C (oval-leafed pondweed) weedkilling efficacy grade [1]	L: redroot pigweed, weedkilling efficacy grade [2]	M: fig-leafed goosefoot, weedkilling efficacy grade [3]	B: bulrush, weed kill grade [4]	C: oval-leafed pondweed, weed kill grade [5]	A: barnyard grass, weed kill grade [6]	A (barnyard grass) weedkilling efficacy grade [7]	a: transplanted rice, effect on crop grade [8]	b: directly sown rice, effect on crop grade [9]	H: black-grass, weedkilling efficacy grade [10]	I: Italian ryegrass, weedkilling efficacy grade [11]	N: chickweed, weedkilling efficacy grade [12]	K: Indian mallow, weedkilling efficacy grade [13]	f: beet, effect on crop grade [14]	P: birds-eye speedwell, weedkilling efficacy grade [15]	B (bulrush) weedkilling efficacy grade [16]	E: green foxtail, weedkilling efficacy grade [17]	D: crabgrass, weedkilling efficacy grade [18]	d: soybean, effect on crop grade [19]	G: wild oat, weedkilling efficacy grade [20]	also measured
Cc1csc(NC(=O)C(C)(C)N2COCN(c3ccccc3)C2=O)n1 [A-1-05]	3 (weed kill ratio 40% or more, less than 70%)	5 (weed kill ratio 90% or more, (practically complete withering))	3 (weed kill ratio 40% or more, less than 70%)	5 (weed kill ratio 90% or more, (practically complete withering))	5 (weed kill ratio 90% or more, (practically complete withering))	5 (weed kill ratio 90% or more, (practically complete withering))	3 (weed kill ratio 40% or more, less than 70%)	0 (weed kill ratio 5% or less (practically no effect))	5 (weed kill ratio 90% or more, (practically complete withering))	5 (weed kill ratio 90% or more, (practically complete withering))	5 (weed kill ratio 90% or more, (practically complete withering))	4 (weed kill ratio 70% or more, less than 90%)	4 (weed kill ratio 70% or more, less than 90%)	3 (weed kill ratio 40% or more, less than 70%)	5 (weed kill ratio 90% or more, (practically complete withering))	5 (weed kill ratio 90% or more, (practically complete withering))	5 (weed kill ratio 90% or more, (practically complete withering))	5 (weed kill ratio 90% or more, (practically complete withering))	0 (weed kill ratio 5% or less (practically no effect))	4 (weed kill ratio 70% or more, less than 90%)	e: wheat, effect on crop grade [21]: 0 (weed kill ratio 5% or less (practically no effect)); c: corn, effect on crop grade [22]: 1 (weed kill ratio 5% or more, less than 20%)
CC(C)(C(=O)Nc1ncc(Cl)s1)N1COCN(c2ccccc2)C1=O [A-1-07]	5 (weed kill ratio 90% or more, (practically complete withering))	5 (weed kill ratio 90% or more, (practically complete withering))	4 (weed kill ratio 70% or more, less than 90%)	5 (weed kill ratio 90% or more, (practically complete withering))	5 (weed kill ratio 90% or more, (practically complete withering))	5 (weed kill ratio 90% or more, (practically complete withering))	5 (weed kill ratio 90% or more, (practically complete withering))	0 (weed kill ratio 5% or less (practically no effect))	5 (weed kill ratio 90% or more, (practically complete withering))	5 (weed kill ratio 90% or more, (practically complete withering))	5 (weed kill ratio 90% or more, (practically complete withering))	4 (weed kill ratio 70% or more, less than 90%)	4 (weed kill ratio 70% or more, less than 90%)	5 (weed kill ratio 90% or more, (practically complete withering))	5 (weed kill ratio 90% or more, (practically complete withering))	5 (weed kill ratio 90% or more, (practically complete withering))	5 (weed kill ratio 90% or more, (practically complete withering))	5 (weed kill ratio 90% or more, (practically complete withering))	1 (weed kill ratio 5% or more, less than 20%)	5 (weed kill ratio 90% or more, (practically complete withering))	e: wheat, effect on crop grade [21]: 2 (weed kill ratio 20% or more, less than 40%); c: corn, effect on crop grade [22]: 3 (weed kill ratio 40% or more, less than 70%)
